Measured values published in the OPERA property sets (Mansouri et al. 2018).
Converted amounts (≈) assume the structure as drawn.

Conditions: not given

| logP | solubility | Compound |
| --- | --- | --- |
| 1.74 | – | CS(=O)(=O)c1cccc2ccccc12 |
| 0.9 | – | N#CCCN(N)c1nc2ccccc2o1 |
| 7.5 | – | Clc1cc2c(Cl)cc(Cl)c(Cl)c2c(Cl)c1Cl |
| 2.16 | – | CCCN1CCCC1CNC(=O)c1cc(S(N)(=O)=O)ccc1OC (centres undefined) |
| 0.7 | – | NC(=O)c1ccccc1NCCCO |
| 3.3 | – | OCCC(F)(F)C(F)(F)C(F)(F)C(F)(F)F |
| 2.54 | – | Cc1cccc2[nH]ccc12 |
| 2.82 | – | CC(C)(C)c1ccc2oc(N(N)CCC#N)nc2c1 |
| 1.78 | – | CN(C(=O)C(Cl)Cl)c1ccc(O)cc1 |
| 2.15 | – | CC(CCC(=O)NCC(=O)O)C1CCC2C3CC(O)C4CC(O)CCC4(C)C3CCC12C (centres undefined) |
| -1.56 | – | Nc1nc2c(ncn2COCCO)c(=O)[nH]1 |
| 1.7 | – | O=[N+]([O-])c1cc(N(CCO)CCO)ccc1NCCO |
| 0.1 | – | CCCCc1ccc(NC(=O)CN(CC(=O)O)CC(=O)O)cc1Br |
| 4.22 | – | COc1cc(Cl)c(Cl)c(Cl)c1 |
| 0.86 | – | Cn1c(CC(=O)O)cnc1C(=O)c1ccc([N+](=O)[O-])cc1 |
| 1.92 | – | CNS(=O)(=O)c1ccc(Cl)cc1 |
| 1.7 | – | Nc1ncnc2c1ncn2Cc1ccccc1 |
| 0.93 | – | CNS(=O)(=O)Cc1ccc2[nH]cc(CCN(C)C)c2c1 |
| – | 24.1 mM (≈ 5 mg/mL) | O=[N+]([O-])c1ccc(O)cc1C(F)(F)F |
| 4.2 | – | CCCCC(NC(Cc1ccccc1)C(=O)N1CCC(OCOC)CC1)C(=O)NC(CC1CCCCC1)C(O)CC(C(=O)NCCNc1n[nH]c(N)n1)C(C)C (centres undefined) |
| 5.49 | – | ClC=C1C2CC(C(Cl)C2(Cl)Cl)C1(C(Cl)Cl)C(Cl)Cl (centres undefined) |

| logP | solubility | Compound |
| --- | --- | --- |
| 2.47 | – | CCn1cc(C(=O)NC(C)C(=O)OC)c(=O)c2ccc(C)nc21 (centres undefined) |
| 0.54 | – | C=CC(=O)NCCCN1CCSCC1 |
| 4.68 | – | COc1c(Cl)c(Cl)cc(Cl)c1Cl |
| 2.02 | – | CC(=O)Nc1cc(NS(=O)(=O)C(F)(F)F)c(C)cc1C |
| 3.74 | – | COc1ccc(Cl)c(Cl)c1Cl |
| 5.2 | – | CC(C)c1ccccc1-c1ccccc1 |
| 4.56 | – | Nc1c(Cl)c(Cl)c(N)c2c1C(=O)c1ccccc1C2=O |
| 6.2 | – | Cc1c(Cl)cc(C(C)C)c(Cl)c1Cl |
| 3.8 | – | CCCOC(=O)c1ccccc1O |
| – | 0.000236 mM (≈ 6.3e-05 mg/mL) | c1ccc2c(c1)ccc1[nH]c3ccc4ccccc4c3c12 |
| 3.38 | – | COc1ccc(-c2cc(C#N)c(Cl)nc2C)cc1 |
| 2.3 | – | CCCCCOC(C)=O |
| 1.77 | – | OCc1ccccc1Cl |
| -1.07 | – | CC(=O)OCCOCn1cnc2c(=O)[nH]c(N)nc21 |
| 1.28 | – | CNS(=O)(=O)c1ccc(C)cc1 |
| 2.33 | – | CCCC(CCC)=NNC(N)=Nc1ccccc1 |
| 2.94 | – | Cc1ccccc1OCCNc1ccccc1C(N)=O |
| 3.15 | – | CSc1nc2ccccc2s1 |
| 4.66 | – | CCCCCCC |
| 2.89 | – | O=C1OC(c2ccc(O)cc2)(c2ccc(O)cc2)c2ccccc21 |
| 0.08 | – | Cc1ccc(O[Si]23OCCN(CCO2)CCO3)cc1 |

| logP | solubility | Compound |
| --- | --- | --- |
| 2.98 | – | CC1=CCC(C(C)(C)O)CC1 (centres undefined) |
| 3.33 | – | CC1(C)Cc2cccc([N+](=O)[O-])c2O1 |
| 1.7 | – | COc1ccc(C#N)cc1 |
| 1.45 | – | CC(=O)c1ccc(NCc2cnc3nc(N)nc(N)c3c2C)cc1 |
| 2.17 | – | COc1ccc(CNC(=O)C(=O)c2c[nH]c3ccc([N+](=O)[O-])cc23)cc1 |
| 2.8 | – | CCC(=O)OCN1C(=O)NC(c2ccccc2)(c2ccccc2)C1=O |
| 5.18 | – | CC1=C(C(=O)OC(C)C)C(c2cccc([N+](=O)[O-])c2)C(C(=O)OC2CN(C(c3ccccc3)c3ccccc3)C2)=C(N)N1 (centres undefined) |
| -0.89 | – | Nc1ccc(C(=O)NCC(=O)O)cc1 |
| 1.5 | – | O=C(O)c1c(C(=O)O)c(C(=O)O)c(C(=O)O)c(C(=O)O)c1C(=O)O |
| 1.8 | – | CCCC(C)C(=O)O (centres undefined) |
| 2.66 | – | COc1cccc(N=c2snc3sc(S(N)(=O)=O)nn23)c1 |
| 0.01 | – | CCCNC(=O)CCC(NS(=O)(=O)c1ccccc1)C(=O)O (centres undefined) |
| 1.65 | – | CCCC(O)CC (centres undefined) |
| 1.55 | – | NS(=O)(=O)c1cccc2ccccc12 |
| 3.05 | – | COCCOC(=O)C1=C(C)NC(C)=C(C(=O)OC(C)C)C1c1cccc([N+](=O)[O-])c1 (centres undefined) |
| 2.54 | – | O=C(Nc1ccc(Cl)cc1)c1cc([N+](=O)[O-])ccc1O |
| 5.91 | – | ClC1=CC2(Cl)C3C(Cl)C(Cl)C(Cl)C3C1(Cl)C2(Cl)Cl (centres undefined) |
| 3.7 | – | CN(C)C(=O)Nc1ccc(Oc2ccc(Cl)cc2)cc1 |
| 2.63 | – | CCC/N=C(N)/N=C(\N)Nc1ccc(Cl)cc1 |
| 3.29 | – | CCCNc1nc(C)nc(C(Cl)(Cl)Cl)n1 |
| – | 2470 mM (≈ 500 mg/mL) | O=C(O)c1ccccc1S(=O)(=O)O |

| Compound | logP | solubility |
| --- | --- | --- |
| Cc1ccc(Cl)cc1[N+](=O)[O-] | 3.05 | – |
| Brc1ccccc1-c1ccccc1 | 4.59 | – |
| CC(C)CN=C=S | 2.82 | – |
| CCCCc1c(C)nc(NCC)nc1O | 2.22 | – |
| ClCC1CO1 (centres undefined) | 0.45 | – |
| BrCBr | 1.7 | – |
| CCOC1OC2OC3(C)CCC4C(COC5OC(C(=O)O)C(O)C(O)C5O)CCC(C1C)C24OO3 (centres undefined) | 1.05 | – |
| Oc1c(O)c(Cl)c(Cl)c(Cl)c1Cl | – | 0.0109 mM (≈ 0.0027 mg/mL) |
| O=[N+]([O-])c1ccc(Cl)c([N+](=O)[O-])c1 | 2.17 | – |
| N#CCCC#N | -0.99 | – |
| CCCCCN(CCCCC)N=O | 3.86 | – |
| O=C(O)C(c1ccc(Cl)cc1)c1ccc(Cl)cc1 | 4.64 | – |
| CCCCCCOC(=O)c1ccccc1C(=O)OCCCCCC | 6.82 | – |
| OC(CN1C2CCCC21)Cn1ccnc1 (centres undefined) | 0.37 | – |
| Cc1cc(Cl)ccc1OC(C)C(=O)O (centres undefined) | 3.13 | – |
| Cc1ccc(OP(=O)(Oc2ccc(C)cc2)Oc2ccc(C)cc2)cc1 | – | 0.000814 mM (≈ 0.0003 mg/mL) |

Same assay, conditions: 20 °C

| solubility | Compound |
| --- | --- |
| 11.2 mM (≈ 1.8 mg/mL) | Oc1cc(O)c2ccccc2c1 |
| 129 mM (≈ 15 mg/mL) | CCCC(C)C(=O)O (centres undefined) |

| Compound | solubility |
| --- | --- |
| ClCC(Br)CBr (centres undefined) | 4.69 mM (≈ 1.11 mg/mL) |

Same assay, conditions: 23.0 °C

| log10 OH rate constant (cm³/molecule/s) | Compound |
| --- | --- |
| -9.8 | CC(=O)CCC=C(C)C |
| -10.4 | CCC/C=C/C=O |

Same assay, conditions: 24 °C

| solubility | Compound |
| --- | --- |
| 0.000244 mM (≈ 4.34e-05 mg/mL) | c1ccc2cc3ccccc3cc2c1 |

Same assay, conditions: 24.0 °C

| Compound | log10 OH rate constant (cm³/molecule/s) |
| --- | --- |
| C[Si]1(C)O[Si](C)(C)O[Si](C)(C)O1 | -12.3 |
| Clc1cccc(-c2cccc(Cl)c2)c1 | -11.4 |

Same assay, conditions: 25 °C

| solubility | Compound |
| --- | --- |
| 1.97e-05 mM (≈ 3.91e-06 mg/mL) | CCCCCCCCCCCCCC |
| 5.27 mM (≈ 0.659 mg/mL) | ClC/C=C/CCl |
| 0.00306 mM (≈ 0.0006 mg/mL) | CC(C)c1ccccc1-c1ccccc1 |
| 9.2 mM (≈ 1.2 mg/mL) | CCCCCCC(C)O (racemic) |
| 35.9 mM (≈ 4.6 mg/mL) | O=C(O)C1CCCCC1 |
| 0.621 mM (≈ 0.12 mg/mL) | CC1(C)Cc2cccc([N+](=O)[O-])c2O1 |
| 0.281 mM (≈ 0.07 mg/mL) | NS(=O)(=O)c1cc2c(s1)SCCC2=O |
| 0.106 mM (≈ 0.019 mg/mL) | Oc1ccc(Cl)c2cccnc12 |
| 3.12e-05 mM (≈ 8e-06 mg/mL) | CCCCCCCCCCCCCCCCCO |
| 5.63 mM (≈ 0.8 mg/mL) | C=C(C)C(=O)OCCCC |
| 2.55e-05 mM (≈ 4.7e-06 mg/mL) | CCCCCCCCCCCCC |

| Compound | solubility |
| --- | --- |
| Oc1cc(Cl)c(Cl)cc1Cl | 6.08 mM (≈ 1.2 mg/mL) |
| CCCCO[N+](=O)[O-] | 9.4 mM (≈ 1.12 mg/mL) |
| Brc1cc(Br)c(OCCOc2c(Br)cc(Br)cc2Br)c(Br)c1 | 0.000291 mM (≈ 0.0002 mg/mL) |
| C=C(C)C(=C)C | 3.97 mM (≈ 0.327 mg/mL) |
| CCCCCCOC(=O)c1ccccc1C(=O)OCCCCCC | 0.000149 mM (≈ 5e-05 mg/mL) |
| CN | 34800 mM (≈ 1080 mg/mL) |

Same assay, conditions: 25.0 °C

| Compound | log10 OH rate constant (cm³/molecule/s) |
| --- | --- |
| c1ccc2cc3ccccc3cc2c1 | -9.96 |
| CCCC=O | -10.6 |
| BrCBr | -12.9 |
| O=CF | -14.4 |
| ClCCCCl | -12.1 |

Same assay, conditions: 27.0 °C

| log10 OH rate constant (cm³/molecule/s) | Compound |
| --- | --- |
| -10.2 | Cc1ccco1 |
| -11.1 | CCC(=O)NC |

Same assay, conditions: 30 °C

| Compound | solubility |
| --- | --- |
| BrCBr | 68.5 mM (≈ 11.9 mg/mL) |
| Brc1ccccc1 | 2.84 mM (≈ 0.446 mg/mL) |

Same assay, conditions: pH 7.4

| Compound | logD |
| --- | --- |
| N[C@@H](Cc1ccc(N(CCCl)CCCl)cc1)C(=O)O | -0.52 |
